In a melting point compilation (Tetko et al.; mined from patent text by program, amines drawn as free bases though some values may be those of a salt):

Cc1n[nH]c(C)c1-c1nn(C(C)c2oc3ccccc3c(=O)c2-c2cccc(F)c2)c2ncnc(N)c12 (stereo unspecified) showed a melting point of 240 to 243 °C.
With CCOC(=O)c1ccc2c(c1)sc1cc(Cl)ccc12 the melting point was 120 to 122 °C.
Work on CONC(=O)N1N=C(c2ccc([N+](=O)[O-])c(C)c2)c2cc3c(cc2CC1C)OCO3 (stereo unspecified) yielded a melting point of 192 to 195 °C.
In the case of Cc1ccc(C=Nc2cc(F)ccc2C(=O)O)cc1, the melting point is reported as 144 to 145 °C.
COc1cc2c(cc1OC)/C(=C/c1cc(OC)c(OC)c(OC)c1)N(C(=O)Cc1cc(OC)c(OC)c(OC)c1)CC2 showed a melting point of 148 to 150 °C.
For CC(C)NC(=O)CCC(O)c1ccccc1 (stereo unspecified), the melting point was 131 to 135 °C.
With COc1ccc(C)c(O)c1 the melting point was 34 to 35 °C.
With c1cnc(NCCc2c[nH]cn2)cn1 the melting point was 200 to 202 °C.
For CCCCCCNC1=CC(=O)c2c(OC)ccc(OC)c2C1=O, the melting point was 83 to 84 °C.
In the case of FC(F)(F)c1cc(-c2cc3ccccc3o2)c2cccc(C(F)(F)F)c2n1, the melting point is reported as 129 to 130 °C.
CCCCC(=O)OC1(C(=O)CCl)CCC2C3CC(C)C4CC(=O)CCC4(C)C3(F)C(=O)CC21C (stereo unspecified) gave a melting point of 67 to 72 °C.
Work on CCn1cc2c(n1)c(=O)[nH]c1cc(OCc3ccccc3)ccc12 yielded a melting point of 240 to 241 °C.
Work on CCOC(=O)c1cc2cc(OCCCOC)cc([N+](=O)[O-])c2[nH]1 yielded a melting point of 94 to 95 °C.
With O=c1cc(-c2ccccc2)c2c(O)cc(O)cc2o1 the melting point was 179 to 182 °C.
COC(=O)C1=C(NCc2ccccc2)C(=O)O[C@@H]1C showed a melting point of 68 to 70 °C.
In the case of CC(c1ccc(O)cc1)(c1ccc(O)cc1)c1ccc2ccccc2c1, the melting point is reported as 185 to 186 °C.
OCC1OC(n2cnc3c(NC4CCN(Cc5ccccc5)CC4)ncnc32)C(O)C1O (stereo unspecified) showed a melting point of 176 to 182 °C.
For Cc1nc(N2CCc3ccccc3CC2)c(C#N)c(=O)n1C[C@H]1COC(C)(C)O1, the melting point was 166 to 168 °C.
Fc1cccc(Cc2cncnc2N2CCCC2)c1 gave a melting point of 51 to 54 °C.
In the case of CC1(C)C(C(=O)O)C1C(O)C(F)(Cl)Cl (stereo unspecified), the melting point is reported as 142 °C.
With COCOc1cccc2c(Br)cccc12 the melting point was 49 to 50 °C.
For COc1cc(C(=O)c2ccccc2)cc([N+](=O)[O-])c1OC, the melting point was 78 to 80 °C.
In the case of COc1ccc(-c2nc(N)ncc2-c2ccc(=O)n(C)n2)cc1, the melting point is reported as 259 °C.
With COc1ccc(COc2cccc(C(=O)Nc3ccc(S(C)=O)cc3)c2)cc1 (stereo unspecified) the melting point was 135 to 136 °C.
For Cc1cc(CO)oc1CN(C)C, the melting point was 104 to 106 °C.
With CO[C@@H]1C=C2C=C3C(=C(C)C(=O)N3C)C[C@]2(C)[C@@H](C)[C@H]1OC(=O)c1ccco1 the melting point was 155 to 158 °C.
CC(C(=O)O)c1cccc(N)c1 (stereo unspecified) showed a melting point of 98 to 100 °C.
With CC(C)(C)c1ccccc1N1CCN(C(=O)Cc2nnn[nH]2)CC1 the melting point was 236 to 237 °C.
For NC(=O)Cc1ccc(-c2ccc(C(CC3CCOCC3)c3ccc(S(=O)(=O)C4CC4)cc3)[nH]2)nc1 (stereo unspecified), the melting point was 151 to 153 °C.
For COCCOC(=O)CCc1cc(C(C)(C)C)c(O)c(C(C)(C)C)c1, the melting point was 62 to 64 °C.
Work on O=C(O)CC1(c2ccc(Cl)cc2Cl)CNC(=O)C1 (stereo unspecified) yielded a melting point of 188 to 192 °C.
Compound CCOP(=O)(CCc1ccnc(-c2nc(=O)c3ccc(Cl)cc3s2)c1)OCC has a melting point of 138 to 139 °C.
Work on COCc1ccc(C2(O)CCN(CC(O)c3cc(C)c(O)cc3C)CC2)cc1 (stereo unspecified) yielded a melting point of 166 °C.
In the case of CCOC(=O)c1ccc(CNc2ccncc2[N+](=O)[O-])cc1, the melting point is reported as 166 to 168 °C.
CN1CC[C@@H](c2c(O)cc(O)c3c(=O)cc(-c4ccc([N+](=O)[O-])cc4Br)oc23)[C@@H]1CO showed a melting point of 186 °C.
Work on Nc1c(Cl)cc(CO)cc1Cl yielded a melting point of 110 to 112 °C.
CCCCCCCNC(=O)Oc1ccc2c(c1)N(Cc1ccccc1)CCC2 showed a melting point of 50 °C.
Compound Cn1cc(-c2ccccc2)c(=S)c(-c2cccc(Cl)c2)c1 has a melting point of 190 to 193 °C.
Compound COC(=O)c1c(C=O)n(C)c2ccc(OC)cc12 has a melting point of 133 to 134 °C.
Compound O=C(NCCCCN1CCC(c2ccc3c(c2OCc2ccccc2)CCCC3)CC1)c1ccc(-c2ccc(C(F)(F)F)cc2)cc1 has a melting point of 169 to 170 °C.
Compound CCC(=O)Nc1c(C#N)cnn1-c1c(Cl)cc(Cl)c(Cl)c1Cl has a melting point of 203 to 204 °C.
Compound Brc1cccc(-c2ccnn2-c2ccc3c(c2)OCO3)c1 has a melting point of 195 to 197 °C.
Oc1ccc2c(nc(C(F)F)n2-c2nc(N3CCOCC3)nc(N3CCOCC3)n2)c1Cl showed a melting point greater than 250 °C.
For CCc1cccc(C)c1C(=O)N[C@@H](Cc1ccc(-c2c(C)n(C)c(=O)n(C)c2=O)cc1)C(=O)O, the melting point was 127 to 133 °C.
With COc1cccc(OC)c1-c1cc(C(=O)O)nn1-c1ccc(C(N)=O)cc1C the melting point was 275 to 276 °C.
For CC(=O)OCn1cc(Cl)c(-c2cc(Cl)cc(Cl)c2)n1, the melting point was 95 °C.
Compound CC(C)(C)OC(=O)Nc1cccc(C(=O)NCC(=O)OCc2ccccc2)c1 has a melting point of 171 to 173 °C.
O=C1c2ccc(F)cc2CCc2cccnc21 gave a melting point of 116 to 119 °C.
For O=C(NP(=O)(O)CCc1ccccc1)OCc1ccccc1, the melting point was 110 °C.
Cc1cnc2n1-c1cc(Cl)c(Cl)cc1N=C(c1ccc(-n3c(C)nnc3C)cc1)C2 showed a melting point of 165 °C.
Work on CCN(CC)N(C(C)=O)c1nc2cc3nc(N(C(C)=O)N4CCCCC4)sc3cc2s1 yielded a melting point of 280 to 282 °C.
